Patent US11299478B2, “2-cyanopyrimidin-4-yl carbamate or urea derivative or salt thereof, and pharmaceutical composition including same” (HANLIM PHARMACEUTICAL CO., LTD., priority 2018, dated 2022)

Key:
Assay type in all cases: biochemical
cathepsin K = biological target: T1, cathepsin K (Homo sapiens, UniProt P43235); assay: Inhibitory activity assay against cathepsin K (enzyme assay); details: Z-Phe-Arg-AMC 10 μM, enzyme 1 nM, pH 5.5, 30 minutes
T1 sequence (P43235 115-329): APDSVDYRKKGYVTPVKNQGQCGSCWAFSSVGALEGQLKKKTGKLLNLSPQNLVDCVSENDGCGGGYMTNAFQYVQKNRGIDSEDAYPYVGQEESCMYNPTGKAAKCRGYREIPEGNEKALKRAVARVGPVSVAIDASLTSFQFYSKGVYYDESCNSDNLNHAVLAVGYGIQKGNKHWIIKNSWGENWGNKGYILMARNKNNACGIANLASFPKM
Outline: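 Fluorogenic assay with 1 nM cathepsin K and 10 μM Z-Phe-Arg-AMC in pH 5.5 buffer (50 mM MES, 2 mM DTT, 2.5 mM EDTA, 0.01% Triton X-100, 10% DMSO). Ten compound concentrations, 10.0 to 0.000508 μM; 30 min reaction, ex 355/em 460 nm; IC50 by 4-parameter logistic fit.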

cathepsin B = cathepsin B (Homo sapiens, UniProt P07858); assay: Inhibitory activity assay against cathepsin B (enzyme assay); details: Z-Arg-Arg-AMC 40 μM, enzyme 1 nM, pH 6.0, 90 minutes
Outline: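 1 nM enzyme with 40 μM Z-Arg-Arg-AMC and compound (10.0 μM down to 0.000508 μM, 10 points) in pH 6.0 buffer of 50 mM MES, 5 mM DTT, 2.5 mM EDTA, 0.005% Polysorbate 20, 10% DMSO. Fluorescence (340/460 nm) read after 90 min; IC50 by 4-parameter logistic fit.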

cathepsin L = cathepsin L (Homo sapiens, UniProt P07711); assay: Inhibitory activity assay against cathepsin L (enzyme assay); details: Z-Phe-Arg-AMC 2 μM, enzyme 3 nM, pH 5.5, 30 minutes
cathepsin L, sequence (P07711 114-333, species assumed): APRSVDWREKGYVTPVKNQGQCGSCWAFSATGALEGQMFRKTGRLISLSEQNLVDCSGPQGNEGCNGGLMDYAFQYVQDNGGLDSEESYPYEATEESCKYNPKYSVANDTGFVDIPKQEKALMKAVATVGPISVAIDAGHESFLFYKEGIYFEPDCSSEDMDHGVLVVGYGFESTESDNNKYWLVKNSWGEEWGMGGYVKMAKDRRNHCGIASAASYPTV
Outline: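 Enzyme at 3 nM with 2 μM Z-Phe-Arg-AMC in 50 mM MES pH 5.5, 2.5 mM DTT, 2.5 mM EDTA, 0.005% Polysorbate 20, 10% DMSO; 30 min reaction, AMC fluorescence 340/460 nm. Ten-point series 10.0 μM to 0.000508 μM; IC50 by 4-parameter logistic fit.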

cathepsin S = cathepsin S (Homo sapiens, UniProt P25774); assay: Inhibitory activity assay against cathepsin S (enzyme assay); details: Z-Phe-Arg-AMC 70 μM, enzyme 3 nM, pH 6.5, 45 minutes
cathepsin S, sequence (P25774 115-331, species assumed): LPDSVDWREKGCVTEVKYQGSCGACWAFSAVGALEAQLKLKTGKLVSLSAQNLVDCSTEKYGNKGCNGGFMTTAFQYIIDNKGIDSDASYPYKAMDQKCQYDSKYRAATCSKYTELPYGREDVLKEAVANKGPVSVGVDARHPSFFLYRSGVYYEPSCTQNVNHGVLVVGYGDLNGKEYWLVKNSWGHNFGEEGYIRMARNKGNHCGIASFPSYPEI
Outline: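 Cathepsin S (3 nM final) with Z-Phe-Arg-AMC substrate (70 μM final) in pH 6.5 buffer of 50 mM MES, 2.5 mM DTT, 1.0 mM EDTA, 0.001% BSA, 10% DMSO; compound 10.0 μM down to 0.000508 μM, 10 points. Fluorescence (ex 340/em 460 nm) after 45 min; IC50 by 4-parameter logistic fit.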

| IC50 (cathepsin K) [nM] | IC50 (cathepsin B) [nM] | IC50 (cathepsin L) [nM] | IC50 (cathepsin S) [nM] | SMILES |
| --- | --- | --- | --- | --- |
| 16.9 | > 10000 | > 10000 | > 10000 | C#Cc1ccc(-c2ccc(NC(=O)NC3(c4ccnc(C#N)n4)CCCCC3)cc2)cc1 [Example 122, 1-(1-(2-cyanopyrimidin-4-yl)cyclohexyl)-3-(4′-ethynyl-[1,1′-biphenyl]-4-yl)urea] |
| 10.2 | > 10000 | > 10000 | > 10000 | N#Cc1nccc(C2(NC(=O)Nc3ccc(-c4cccc(F)c4)cc3)CCCCC2)n1 [Example 123, 1-(1-(2-cyanopyrimidin-4-yl)cyclohexyl)-3-(3′-fluoro-[1,1′-biphenyl]-4-yl)urea] |
| 6.9 | > 10000 | > 10000 | > 10000 | N#Cc1nccc(C2(NC(=O)Nc3ccc(-c4ccccc4F)cc3)CCCCC2)n1 [Example 124, 1-(1-(2-cyanopyrimidin-4-yl)cyclohexyl)-3-(2′-fluoro-[1,1′-biphenyl]-4-yl)urea] |
| 15.2 | > 10000 | > 10000 | 5420 | N#Cc1nccc(C2(NC(=O)Nc3ccc(-c4ccc(F)nc4)cc3)CCCCC2)n1 [Example 125, 1-(1-(2-cyanopyrimidin-4-yl)cyclohexyl)-3-(4-(6-fluoropyridin-3-yl)phenyl)urea] |
| 25.1 | > 10000 | > 10000 | 5750 | N#Cc1nccc(C2(NC(=O)Nc3ccc(-c4ccc(C(F)(F)F)nc4)cc3)CCCCC2)n1 [Example 126, 1-(1-(2-cyanopyrimidin-4-yl)cyclohexyl)-3-(4-(6-(trifluoromethyl)pyridin-3-yl)phenyl)urea] |
| 10.9 | > 10000 | > 10000 | > 10000 | COc1ccc(-c2ccc(NC(=O)NC3(c4ccnc(C#N)n4)CCCCC3)cc2)cn1 [Example 127, 1-(1-(2-cyanopyrimidin-4-yl)cyclohexyl)-3-(4-(6-methoxypyridin-3-yl)phenyl)urea] |
| 13.6 | > 10000 | > 10000 | 9060 | N#Cc1nccc(C2(NC(=O)Nc3ccc(-c4cccnc4)cc3)CCCCC2)n1 [Example 128, 1-(1-(2-cyanopyrimidin-4-yl)cyclohexyl)-3-(4-(pyridin-3-yl)phenyl)urea] |
| 4.9 | > 10000 | > 10000 | > 10000 | CC(=O)Nc1ccc(-c2ccc(NC(=O)NC3(c4ccnc(C#N)n4)CCCCC3)cc2)cc1 [Example 129, N-(4′-(3-(1-(2-cyanopyrimidin-4-yl)cyclohexyl)ureido)-[1,1′-biphenyl]-4-yl)acetamide] |
| 7.8 | > 10000 | > 10000 | 9070 | CN(C)C(=O)c1ccc(-c2ccc(NC(=O)NC3(c4ccnc(C#N)n4)CCCCC3)cc2)cc1 [Example 130, 4′-(3-(1-(2-cyanopyrimidin-4-yl)cyclohexyl)ureido)-N,N-dimethyl-[1,1′-biphenyl]-4-carboxamide] |
| 15.9 | > 10000 | > 10000 | 3930 | N#Cc1nccc(C2(NC(=O)Nc3ccc(-c4ccc(CCC(=O)O)cc4)cc3)CCCCC2)n1 [Example 131, 3-(4′-(3-(1-(2-cyanopyrimidin-4-yl)cyclohexyl)ureido)-[1,1′-biphenyl]-4-yl)propanoic acid] |
| 15.9 | > 10000 | > 10000 | > 10000 | N#Cc1nccc(C2(NC(=O)Nc3ccc(I)cc3)CCCCC2)n1 [Example 132, 1-(1-(2-cyanopyrimidin-4-yl)cyclohexyl)-3-(4-iodophenyl)urea] |
| 63.7 | > 10000 | > 10000 | > 10000 | N#Cc1nccc(C2(NC(=O)Nc3ccc(Br)c(C(F)(F)F)c3)CCCCC2)n1 [Example 133, 1-(4-bromo-3-(trifluoromethyl)phenyl)-3-(1-(2-cyanopyrimidin-4-yl)cyclohexyl)urea] |
